Legend:
[1] = system: Huh7-K2040 cells; conditions: for cellular DNA synthesis / cellular mRNA synthesis / levels: 24 hours
Text: (§2) We therefore examined the influence of lovastatin upon the synthesis of DNA, mRNA, and protein in Huh7-K2040 cells.

[2] = system: HCV RNA replication; experiment: HCV RNA replicon levels in Huh7-K2040 cells (subgenomic replicon); conditions: for viral RNA levels (effect in words): 24-hour culture period; for rescue of HCV RNA levels from the suppressive action of lovastatin: lovastatin-treated Huh7-K2040 cells supplemented with the metabolite, 24-hour culture
[3] = system: HCV RNA replication; experiment: HCV RNA replicon levels in Huh7-HP cells (subgenomic replicon)
[4] = system: West Nile virus; experiment: WN virus replication in mammalian cell types; type: cell-based; conditions: several mammalian cell types
Procedure: Cells and virus. Vero (ATCC CCL-81) cells are grown in minimal essential medium (MEM) supplemented with 10% fetal bovine serum (FBS). BHK-21/WI2 (BHK-21) and Aedes albopictus C6/36 (C6/36) (ATCC CRL-1660) cells are grown in Dulbecco's modification of MEM with 10% FBS and 0.1 mM nonessential amino acids. Antibiotics are added to all media at 10 U/ml of penicillin and 10 μg/ml of streptomycin. Cells are maintained in 5% CO2 at 37° C. (Vero and BHK-21) or 28° C. (C6/36). West Nile viruses are obtained from the World Arbovirus Reference Collection and stocks are grown and plaque titrated in Vero cells. Prenylation inhibitors examined over a series of 10-fold dilutions.
IFA. Indirect immunofluorescence assays (IFA) are used to detect viral protein expression in WNV RNA-transfected BHK-21 cells. After electroporation, approximately 10^5 transfected cells are spotted onto 10-mm glass coverslips. Cells on coverslips are analyzed by IFA at various times posttransfection for viral protein synthesis. […] The coverslips are washed with PBS, mounted to a slide using fluorescent mounting medium (KPL), and observed under a fluorescence microscope equipped with a video documentation system (Zeiss, Thornwood, N.Y.).
Specific infectivity assay. […] Plaques are counted after incubation of the plates for another 12 to 24 h, and the specific infectivity is calculated as the number of PFU per microgram of RNA. […]

[5] = system: HCV replication complex (NS5A); experiment: Immunocytochemical NS5A staining of the HCV replication complex; type: cell-based, hepatitis C virus
Text: HCV Replication Complex Requires Protein Geranylgeranylation. Among other functions, geranylgeranylated proteins mediate the interaction of membranes with cytoskeletal proteins (8). Such interactions are likely to be required for the formation of the ER-associated HCV replication complex, which contains the viral RNA as well as the nonstructural viral proteins (1, 2). […] To test whether lovastatin affects the replication complex, we stained cells with an antibody to NS5A and an FITC-labeled second antibody. In the absence of lovastatin treatment, much of the NS5A was localized in a punctate pattern consistent with the ER localization of the HCV replication complex.

[6] = system: Huh7-K2040 cells; experiment: Cell viability of treated cultures; conditions: cultures treated over 7 days, at the concentrations used
Text: as §2

[7] = system: Rap1a; experiment: SDS-PAGE and blot of Rap1a prenylation in Huh7-K2040 cells; type: cell-based, human
[8] = system: West Nile virus; experiment: WN virus replication in a mouse model; type: in vivo
Text: Virulence in mice. Mice are housed in an environmentally controlled room under biosafety level 3 conditions and are given food and water ad libitum. Female outbred CD-1 mice (Charles River Laboratories, Wilmington, Mass.) are obtained at 5 weeks of age and acclimatized for 1 week. All mice are 6 weeks of age at the start of the experiment. Eight mice per group are inoculated with diluent alone or with 10^2 PFU of virus subcutaneously (s.c.) in the left rear footpad. Diluent is PBS (endotoxin-free) supplemented with 1% FBS. Mice are evaluated clinically and weighed daily for 2 weeks, then monitored daily and weighed thrice weekly for 2 more weeks. Observed clinical signs include ruffled fur, paresis, hindleg paralysis, and tremors. Morbidity is defined as exhibition of greater than 10% weight loss or clinical signs for 2 or more days. Mice are euthanized if they become moribund.

[9] = system: HCV RNA replication; experiment: HCV RNA replicon levels in Huh7-C5B3 cells (genome-length replicon)
[10] = system: HCV replicon RNA; conditions: hepatoma cells, recent studies (ref. 23); cited from earlier work
[11] = system: H-Ras(S189L); experiment: Prenylation of mutant H-Ras(S189L), substrate for GGTase I (blot); type: cell-based; conditions: 10 μM
Text: (§1) In contrast, FPTI-III had no effect on viral RNA levels. To confirm the specificity of GGTI-286 and FPTI-III action, we evaluated the effect of each compound on the prenylation of wild-type H-Ras, which is normally farnesylated, and a mutant H-Ras(S189L) in which the carboxyl-terminal amino acid has been changed to leucine, making it a substrate for GGTase 1 (21). […] Thus, the inhibitory activity of GGTI-286 on HCV RNA replication must be due to its action against GGTase I, and not farnesyl transferase.

[12] = system: H-Ras; experiment: Prenylation of wild-type H-Ras (blot); type: cell-based; conditions: 10 μM
Text: as §1

**Q.** With `C[C@@]1(CO)[C@H](O)CC[C@@]2(C)[C@H]1CC[C@H]1C[C@@H]3C[C@@]12CC[C@]3(O)CO` [aphidicolin] as the compound, how does the “global rate of cellular protein synthesis” value [1] read?
**A.** The value was “moderately suppressed”.

**Q.** And the “cellular DNA synthesis” value [1]?
**A.** Its value is “blocked DNA synthesis”.

**Q.** What about the “cellular mRNA synthesis / levels” value [1] of the same compound?
**A.** The value was “did not affect”.

**Q.** What about the “viral RNA levels (effect in words)” value ([2]; Huh7-K2040 cells) of the same compound?
**A.** The value was “did not affect”.

**Q.** What does the source list for `CC[C@H](C)C(=O)O[C@H]1C[C@@H](C)C=C2C=C[C@H](C)[C@H](CC[C@@H]3C[C@@H](O)CC(=O)O3)[C@H]21` [lovastatin]?
**A.** levels of viral proteins [3]: reduced the levels of viral proteins; WN virus replication [4]: disrupted; punctate NS5A staining pattern ([5]; treatment for 48 hours): largely disappeared; global rate of cellular protein synthesis [1]: moderately suppressed; cellular DNA synthesis [1]: did not significantly affect; cellular mRNA synthesis / levels [1]: did not significantly affect; cell viability [6]: no significant effects; reduction of HCV RNA levels ([2]; Huh7-K2040 cells, after 72 hours): more than 95%; reduction of HCV RNA levels ([2]; Huh7-K2040 cells, after a 24-hour treatment): more than 70%; viral protein levels ([2]; Huh7-K2040 cells, over a 72-hour culture period): reduction in viral protein levels; prenylation state of Rap1a ([7]; Huh7-K2040 cells): caused the appearance of a slow-migrating form; WN virus replication [8]: disrupted; levels of viral proteins [9]: reduced the levels of viral proteins

**Q.** With `NC(=O)NO` [hydroxyurea] as the compound, how does the “global rate of cellular protein synthesis” value [1] read?
**A.** The value was “moderately suppressed”.

**Q.** What about the “cellular DNA synthesis” value [1] of the same compound?
**A.** The value was “blocked DNA synthesis”.

**Q.** And the “cellular mRNA synthesis / levels” value [1]?
**A.** The value was “did not affect”.

**Q.** And the “viral RNA levels (effect in words)” value ([2]; Huh7-K2040 cells)?
**A.** Its value is “did not affect”.

**Q.** With `C[C@H](CCCC(C)(C)O)[C@H]1CC[C@H]2[C@@H]3CC=C4C[C@@H](O)CC[C@]4(C)[C@H]3CC[C@]12C` [25-hydroxycholesterol] as the compound, how does the “level of HCV replicon RNA” value [10] read?
**A.** The value was “reduce the level of HCV replicon RNA”.

**Q.** With `COC(=O)[C@H](CC(C)C)NC(=O)c1ccc(NC[C@@H](N)CS)cc1-c1ccccc1` [GGTI-286] as the compound, how does the “prenylation (geranylgeranylation) of H-Ras(S189L)” value [11] read?
**A.** The value was “inhibiting farnesylation of H-Ras as well as geranylgeranylation of H-Ras(S189L)”.

**Q.** What about the “redistribution of HCV NS5A protein from punctate to diffuse pattern” value [5] of the same compound?
**A.** Its value is “produced a redistribution”.

**Q.** What about the “prenylation (farnesylation) of wild-type H-Ras” value [12] of the same compound?
**A.** Its value is “inhibiting farnesylation of H-Ras”.

**Q.** What about the “level of HCV RNA” value ([2]; Huh7-K2040 cells, increasing concentrations of inhibitor) of the same compound?
**A.** The value was “dose-dependent decrease”.

**Q.** And the “prenylation of endogenous Rap1a” value ([7]; 10 μM)?
**A.** The value was “clear-cut inhibitory effects”.

**Q.** Which “rescue of HCV RNA levels from the suppressive action of lovastatin” value [2] does the source give for `CC(C)=CCCC(C)=CCCC(C)=CCO` [farnesol] here?
**A.** The value was “neither farnesol nor oleate, mediated a dose-dependent rescue”.

**Q.** Which results are given for `CC(C)=CCC/C(C)=C/CC/C(C)=C/CC/C(C)=C/CO` [geranylgeraniol]?
**A.** prevention of loss of punctate NS5A distribution ([5]; added to lovastatin-treated cells): prevented the loss of the punctate distribution; rescue of HCV RNA levels from the suppressive action of lovastatin [2]: mediated a dose-dependent rescue; restoration of Rap1a geranylgeranylation ([7]; added to lovastatin-treated Huh7-K2040 cells): eliminated the upper band

**Q.** Which “rescue of HCV RNA levels from the suppressive action of lovastatin” value [2] does the source give for `CC(O)(CCO)CC(=O)O` (centres unmarked) [mevalonate] here?
**A.** The value was “dose-dependent rescue”.

— patent publication US7223787B2, “Prenylation inhibitors reduce host cell permissiveness to viral replication” (priority 2003, dated 2007)
